Data reported in patent publication US6706706B2, “Non-nucleoside reverse transcriptase inhibitors” (priority 2002, dated 2004).
pEC50, pIC50: −log10 of the molar value.

What was measured:
HIV-1 RT wild-type (WT) = HIV-1 RT wild-type (WT) (Human immunodeficiency virus type 1 group M subtype B, UniProt P03366); assay: biochemical
Source text: This activity can be quantitatively measured in a cell-free enzyme assay and is based upon the observation that reverse transcriptase is able to use a synthetic template poly r(C) primed with a biotinylated oligo d(G) to transcribe a radio-labeled DNA strand utilizing 3H-dGTP as a substrate.

[1] = tested on: HIV replication in C8166 cells, virus coding for wild type reverse transcriptase; assay: microbe, parasite or virus in culture; format: cell-based, HIV-1; details: Human immunodeficiency virus 1, 72 h, three days, extracellular p24
Procedure: The compound of the invention was tested for its ability to inhibit HIV replication in cell culture in a 96-well plate assay. Complete RPMI 1640, consisting of RPMI 1640+10% fetal bovine serum, 10 μg/ml gentamycin and 10 μM β-mercaptoethanol was used for dilution of the compound as well as cell growth medium. The T lymphocyte cell line C8166 was infected at a multiplicity of infection of 0.001 with viruses coding for wild type and mutant reverse transcriptase. Cells were then incubated for three days in the presence of serial dilutions of the compound of the invention. The supernatant was pooled from eight replica wells and the concentration of extracellular p24 was determined using a commercially available HIV-1 p24 antigen assay kit (Beckman-Coulter®). The level of inhibition (% inhibition) was calculated with the following equation: [formula]

SMILES | pIC50 (HIV-1 RT wild-type (WT)) | pEC50 [1]
CCN1c2ncc(CCOc3ccc(C(=O)O)c(C)c3C)cc2C(=O)N(C)c2cccnc21 [Entry 1001] | > 7.30 | > 7.30
CCN1c2ncc(CCOc3ccc(CCC(=O)O)cc3C)cc2C(=O)N(C)c2cccnc21 [Entry 1008] | > 7.30 | > 7.30
CCc1cc(C(=O)OC)ccc1OCCc1cnc2c(c1)C(=O)N(C)c1cccnc1N2CC [Entry 1031] | > 7.30 | 
CCN1c2ncc(CCOc3ccc(C(=O)O)cc3C)cc2C(=O)N(C)c2ccc(N(C)C)nc21 [Entry 1028] | > 7.30 | 
CCN1c2ncc(CCOc3ccc(C(=O)OC)cc3Cl)cc2C(=O)N(C)c2cccnc21 [Entry 1032] | > 7.30 | 
CCN1c2ncc(CCOc3ccc(C(=O)O)cc3C)cc2C(=O)N(C)c2cccnc21 [Entry 1002] | > 7.30 | > 7.30
CCOc1ccc2c(n1)N(CC)c1ncc(CCOc3ccc(C(=O)O)cc3C)cc1C(=O)N2C [Entry 1021] | > 7.30 | 
CCN1c2ncc(CCOc3ccc(C(=O)O)cc3C)cc2C(=O)N(C)c2ccc(OC)nc21 [Entry 1019] | > 7.30 | 
CCc1cc(C(=O)O)ccc1OCCc1cnc2c(c1)C(=O)N(C)c1cccnc1N2CC [Entry 1003] | > 7.30 | 
CCN1c2ncc(CCOc3ccc(C(=O)OC)cc3C)cc2C(=O)N(C)c2cccnc21 [Entry 1030] | > 7.30 | > 7.30
CCN1c2ncc(CCOc3ccc(C(=O)O)c(O)c3C)cc2C(=O)N(C)c2cccnc21 [Entry 1004] | > 7.30 | > 7.30
CCN1c2ncc(CCOc3ccc(C(=O)O)cc3C(F)(F)F)cc2C(=O)N(C)c2cccnc21 [Entry 1027] | 7.00 to 7.30 | 
CCN1c2ncc(CCOc3ccc(C(=O)O)c(N)c3)cc2C(=O)N(C)c2cccnc21 [Entry 1024] | > 7.30 | 
CCN1c2ncc(CCOc3ccc(C(=O)O)c(Cl)c3)cc2C(=O)N(C)c2cccnc21 [Entry 1026] | 7.00 to 7.30 | 
CCN1c2ncc(CCOc3ccc(C(=O)O)cc3C)cc2C(=O)Nc2c(C)ccnc21 [Entry 1018] | > 7.30 | > 7.30
CCOc1ccc2c(n1)N(CC)c1ncc(CCOc3ccc(C(=O)OC)cc3C)cc1C(=O)N2C [Entry 1034] | > 7.30 | 
CCN1c2ncc(CCOc3ccc(C=CC(=O)O)cc3C)cc2C(=O)N(C)c2cccnc21 [Entry 1010] | > 7.30 | > 7.30
CCN1c2ncc(CCOc3ccc(C(=O)O)cc3Br)cc2C(=O)N(C)c2cccnc21 [Entry 1005] | > 7.30 | 

SMILES | pIC50 (HIV-1 RT wild-type (WT)) | pEC50 [1]
CCN1c2ncc(CCOc3ccc(C(C)C(=O)O)cc3C)cc2C(=O)N(C)c2cccnc21 (stereo not drawn) [Entry 1006] | > 7.30 | 
CCN1c2ncc(CCOc3ccc(CC(=O)O)cc3C)cc2C(=O)N(C)c2cccnc21 [Entry 1014] | > 7.30 | > 7.30
CCN1c2ncc(CCOc3ccc(C(=O)O)cc3Cl)cc2C(=O)N(C)c2cccnc21 [Entry 1023] | 7.00 to 7.30 | > 7.30
CCN1c2ncc(CCOc3ccc(C(=O)O)cc3C)cc2C(=O)N(C)c2ccc(F)nc21 [Entry 1020] | > 7.30 | 
CCN1c2ncc(CCOc3ccc(C(=O)O)c(F)c3)cc2C(=O)N(C)c2cccnc21 [Entry 1025] | 7.00 to 7.30 | 
CCN1c2ncccc2NC(=O)c2cc(CCOc3ccc(C(=O)O)cc3C)cnc21 [Entry 1029] | > 7.30 | > 7.30
CCN1c2ncc(CCOc3ccc(C(=O)O)cc3C)cc2C(=O)Nc2c(C)cc(Cl)nc21 [Entry 1016] | > 7.30 | 
CCN1c2ncc(CCOc3ccc(C(=O)OC)c(F)c3)cc2C(=O)N(C)c2cccnc21 [Entry 1035] | > 7.30 | 
CCN1c2ncc(CCOc3ccc(C=CC(=O)O)cc3C)cc2C(=O)N(C)c2ccc(Cl)nc21 [Entry 1009] | > 7.30 | > 7.30
CCN1c2ncc(CCOc3ccc(C(=O)O)cc3C)cc2C(=O)N(C)c2ccc(C)nc21 [Entry 1017] | > 7.30 | 
CCN1c2ncc(CCOc3ccc(CC(=O)O)c(C)c3C)cc2C(=O)N(C)c2cccnc21 [Entry 1013] | > 7.30 | 
CCN1c2ncc(CCOc3ccc(C(=O)OC)cc3C(F)(F)F)cc2C(=O)N(C)c2cccnc21 [Entry 1033] | > 7.30 | 
CCN1c2ncc(CCOc3ccc(CCC(=O)O)cc3C)cc2C(=O)N(C)c2ccc(Cl)nc21 [Entry 1007] | > 7.30 | > 7.30
CCN1c2ncc(CCOc3ccc(CC(=O)O)cc3Cl)cc2C(=O)N(C)c2cccnc21 [Entry 1011] | > 7.30 | 
CCN1c2ncc(CCOc3ccc(C(=O)O)cc3C)cc2C(=O)N(C)c2ccc(Cl)nc21 [Entry 1015] | > 7.30 | 
CCN1c2ncc(CCOc3ccc(C(=O)O)cc3[N+](=O)[O-])cc2C(=O)N(C)c2cccnc21 [Entry 1022] | 7.00 to 7.30 | 7.00 to 7.30
CCN1c2ncc(CCOc3ccc(CC(=O)O)cc3Br)cc2C(=O)N(C)c2cccnc21 [Entry 1012] | > 7.30 | 
